Data taken from PMC11374953, “Heteroaryl derivatives of suvorexant as OX1R selective PET ligand candidates: Cu-mediated ^18F-fluorination of boroxines, in vitro and initial in vivo evaluation” (EJNMMI Research, 2024).

Tests used:
[1] = target: T1, human OX2R (Homo sapiens, UniProt O43614); set-up: method as in PMID 32669442; conditions: HEK293T homogenates; data from previous work; read-out: Ki values (nM ± SEM) hOX2R; cited from earlier work
T1 construct: host or cells: HEK293T
T1 sequence (O43614 1-444): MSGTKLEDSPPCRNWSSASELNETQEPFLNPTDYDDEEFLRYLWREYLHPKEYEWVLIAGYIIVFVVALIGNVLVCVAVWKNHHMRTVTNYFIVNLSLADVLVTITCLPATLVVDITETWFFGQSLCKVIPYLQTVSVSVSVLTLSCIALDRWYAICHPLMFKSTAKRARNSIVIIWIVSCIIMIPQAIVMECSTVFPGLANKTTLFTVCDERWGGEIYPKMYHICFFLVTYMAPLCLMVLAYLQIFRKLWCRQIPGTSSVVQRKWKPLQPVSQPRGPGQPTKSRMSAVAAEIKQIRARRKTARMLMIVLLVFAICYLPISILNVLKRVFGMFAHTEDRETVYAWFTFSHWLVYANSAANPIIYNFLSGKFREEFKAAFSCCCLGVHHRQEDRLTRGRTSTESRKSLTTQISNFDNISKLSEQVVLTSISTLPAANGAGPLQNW

[2] = target: T2, human OX1R (Homo sapiens, UniProt O43613); set-up: method as in PMID 32669442; conditions: data from previous work, cited from earlier work
T2 construct: host or cells: HEK293T
T2 sequence (O43613 1-425): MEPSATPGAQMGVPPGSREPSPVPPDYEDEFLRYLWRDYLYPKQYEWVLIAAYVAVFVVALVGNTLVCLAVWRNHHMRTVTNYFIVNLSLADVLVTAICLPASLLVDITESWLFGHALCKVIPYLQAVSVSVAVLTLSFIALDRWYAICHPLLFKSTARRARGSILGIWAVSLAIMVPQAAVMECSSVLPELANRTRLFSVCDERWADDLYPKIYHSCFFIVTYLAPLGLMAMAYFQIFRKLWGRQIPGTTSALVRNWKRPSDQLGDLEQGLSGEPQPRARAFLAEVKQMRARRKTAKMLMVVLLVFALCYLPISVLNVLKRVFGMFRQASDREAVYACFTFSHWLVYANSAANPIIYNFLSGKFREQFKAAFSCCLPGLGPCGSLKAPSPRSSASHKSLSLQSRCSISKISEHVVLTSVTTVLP

[3] = Radioligand stability in human plasma and human serum; assay type: in vitro ADME; conditions: 37 °C, up to 120 min, radio-HPLC
Protocol: (§1) The radioligand (1–2 MBq, [^18F]1c or [^18F]1f) in PBS (20 µL) was incubated with human serum, human plasma or rat plasma (400 µL) at 37 °C. Samples (50 µL) were taken at 5, 10, 15, 30, 60 and 120 min, mixed with aqueous TFA (10%, 50 µL) and centrifuged (20,000g, 2 min). The supernatant (20 µL) was analyzed by radio-HPLC.

[4] = Plasma protein binding (MicroSpin G-50 columns); assay type: in vitro ADME; conditions: human plasma, 37 °C, read-out: plasma protein binding (PPB) (converted)
Protocol: The radiotracer (100–200 kBq, [^18F]1c or [^18F]1f) in PBS (2 µL) was incubated with human plasma (100 µL) at 37 °C for 10 min. After preconditioning of the microcolumns according to the instructions of the manufacturer (illustra MicroSpin G-50 columns from GE Healthcare), a sample (40 µL) of was applied to the resin. The microspin tubes were centrifuged (2000g, 2 min) and both, eluate and resin were measured by a γ-counter (Wallac Wizard 1470, PerkinElmer, USA). The PPB was calculated as percentage of bound ligand (cpm of resin) from the total amount of radioactivity (sum of cpm of resin and eluate). Samples from incubation of the radiotracer in saline instead of plasma served as negative control. The mean PPB value was determined from at least two independent experiments each performed in triplicate.

[5] = Radioligand stability in rat plasma; assay type: in vitro ADME; conditions: 37 °C, up to 120 min, radio-HPLC
Protocol: as §1

[6] = Dynamic small animal PET imaging of the rat brain; assay type: in vivo; conditions: for brain uptake after pretreatment with cyclosporine A: cyclosporine A 25 mg/kg i.v. prior to tracer; for brain uptake after pretreatment with cyclosporine A / brain uptake after preinjection of suvorexant / maximum brain uptake: n = 1; for brain uptake after preinjection of suvorexant: suvorexant 1 mg/kg i.v. 15 min prior to tracer; for time of maximum brain uptake p.i. / maximum brain uptake: tracer alone i.v.; for maximum brain uptake: whole brain
Protocol: Small animal PET experiments in rats were performed to allow for an initial comparison in single animals that were injected with [^18F]1c or [^18F[1f alone, after preinjection of suvorexant (1 mg/kg), and after pretreatment with cyclosporine A (25 mg/kg) (Fig. 3). […] Therefore, to elucidate the P-gp-mediated transport of the compounds, specific experiments were performed.
Fig. 3 Time-activity curves and horizontal PET slices of the rat brain after injection of [^18F]1c (A, C) and [^18F]1f (B, D). Single animals were injected with the tracer alone (“control”, blue) compared to animals preinjected with suvorexant (1 mg/kg, 15 min prior to tracer injection, each n = 1; “blocking”, red) or cyclosporine A (25 mg/kg, 30 min prior to tracer injection, each n = 1; green)
Ten- to 13-week-old female CD Sprague–Dawley rats (250–300 g, Charles River) were housed with free access to standard rat chow (Purina) and water at all times. Dynamic small animal PET scans were performed on an Inveon™ microPET scanner (Siemens Healthineers AG, Erlangen, Germany). All rats were continuously anesthetized using isoflurane (2–3% in oxygen, 0.8 L/min) and placed on a heating pad (37 °C) during the PET scan. Rats were injected intravenously in the tail vein with the radioligand in saline (5–15 MBq in 200–300 µL, [^18F]1c or [^18F]1f). Pretreatment with suvorexant (1 mg/kg, 15 min prior to tracer injection) or cyclosporine A (25 mg/kg, […] to tracer injection) was done intravenously. Dynamic PET scans were acquired from 0 to 60 min p.i. and consisted of 23 frames with increasing duration (12 × 10 s, 3 × 1 min, 5 × 5 min and 3 × 10 min). Subsequently, an attenuation scan with a rotating Co-57 point source was performed. The obtained dynamic emission images were subjected to an attenuation and decay correction. After the iterative maximum a posteriori (MAP) estimation for the image reconstruction, regions of interest (ROIs) were drawn for the whole brain. Computational processing of the PET scans was done with the software PMOD (PMOD Technologies LLC). The data obtained were finally converted into values expressed as percent of injected dose per gram (%ID/g).

[7] = Partition coefficient logD7.4 (n-octanol/PBS); assay type: physicochemical; conditions: n-octanol/PBS pH 7.4, mean ± SD
Protocol: Phosphate-buffered saline (PBS, 480 µL, pH 7.4) and n-octanol (500 µL) were placed in an Eppendorf tube. The radioligand (30–50 kBq, [^18F]1c or [^18F]1f) in PBS (20 µL) was added to the tube, vortexed for 1 min and centrifuged (20,000g, 1 min). Three samples (100 µL) from each layer were collected and measured by a γ-counter (Wallac Wizard 1470, PerkinElmer, USA). After the average cpm values from the triplicate measurements of each layer were calculated, the logD7.4 was determined as the logarithm of the ratio of n-octanol (mean cpm) to PBS (mean cpm). The mean logD7.4 value ± standard deviation was determined by at least three independent experiments each performed in triplicates.

[8] = cited from earlier work

SMILES | Ki [1] [nM] | Ki ([2]; HEK293T membranes, read-out: Ki values (nM ± SEM) hOX1R) [nM] | OX1R selectivity Ki(hOX2R)/Ki(hOX1R) ([2]; Ki for OX2R divided by Ki for OX1R) | stability in human plasma [3] | stability in human serum [3] | fraction unbound at 10 min [4] | stability in rat plasma [5] | brain uptake after pretreatment with cyclosporine A [6] [%ID/g] | brain uptake after preinjection of suvorexant [6] | time of maximum brain uptake p.i. [6] | maximum brain uptake [6] [%ID/g] | logD [7] | protein-bound fraction in the blood [8] [%]
CC[C@H](C)[C@H]1CN(c2nc3cc(Cl)ccc3o2)CCCN1C(=O)c1cc(C)ccc1-n1nccn1 [JH112] | 54 ± 7 | 0.72 ± 0.08 | 75 |  |  |  |  |  |  |  |  |  | 
Cc1ccc(-n2nccn2)c(C(=O)N2CCCN(c3nc4ccc([18F])cc4s3)CC2)c1 [[^18F]1c, [4-(6-[^18F]fluorobenzo[d]thiazol-2-yl)-1,4-diazepan-1-yl][5-methyl-2-(2H-1,2,3-triazol-2-yl)phenyl]methanone] |  |  |  | stable over 120 min | stable over 120 min | 0.34 | stable over 120 min | 0.25 | 0.25 %ID/g | about 40 s | 0.17 | 2.28 | 
CC[C@H](C)[C@H]1CN(c2nc3ccc([18F])cc3s2)CCCN1C(=O)c1cc(C)ccc1-n1nccn1 [[^18F]1f, {(S)-2-[(S)-sec-butyl]-4-(6-[^18F]fluorobenzo[d]thiazol-2-yl)-1,4-diazepan-1-yl}[5-methyl-2-(2H-1,2,3-triazol-2-yl)phenyl]methanone] |  |  |  | stable over 120 min | stable over 120 min | 0.23 | stable over 120 min | 0.18 | not affected | 24 s | 0.15 | 2.37 | 
Cc1ccc(-n2nccn2)c(C(=O)N2CCN(c3nc4cc(Cl)ccc4o3)CC[C@H]2C)c1 [suvorexant] |  |  |  |  |  |  |  |  |  |  |  |  | > 99
